The record followed here is US11377441B2, “Covalent inhibitors of KRAS” (Araxes Pharma LLC, priority 2017, dated 2022).

The target in this test is T1, KRAS G12C 1-169, his-tagged protein, GDP-loaded (Homo sapiens, UniProt P01116, G12C).
T1 construct: KRAS G12C 1-169, his-tagged protein, GDP-loaded
As to the kind of experiment: Biochemical assay: covalent modification of KRAS G12C measured by mass spectrometry (RapidFire/TOF or Q-Exactive). It counts as binding. The note with it: covalent binding to (modification of) KRAS G12C after a ten minute incubation period. Put shortly: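 Intact-mass readout (TOF or Q-Exactive, charge-envelope deconvolution) gives percent covalent adduct from modified and unmodified species. Compound at 10, 30 or 100 μM was incubated at room temperature for 10 min to 24 h with 2 μM or 0.5 μM GDP-bound KRAS G12C 1-169 in Hepes/NaCl/MgCl2 buffer, then acid-quenched.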

Molecules are shown by their SMILES.

In the case of `C=CC(=O)N1C[C@H](C)N(c2nc(N3CC(N(C)C)C3)nc3c(F)c(-c4c(C)ccc5[nH]nc(NC(C)=O)c45)c(Cl)cc23)C[C@H]1C` [Compound 119, N-(4-(4-((2S,5R)-4-acryloyl-2,5-dimethylpiperazin-1-yl)-6-chloro-2-(3-(dimethylamino)azetidin-1-yl)-8-fluoroquinazolin-7-yl)-5-methyl-1H-indazol-3-yl)acetamide], the Binding % entry was “+ (+ indicates binding activity greater than 0% and up to 50%)”.

For `C=CC(=O)N1C[C@H](C)N(c2nc(N3CC(N(C)C)C3)nc3c(F)c(-c4c(C)ccc5cnn(C)c45)c(Cl)cc23)C[C@H]1C` [Compound 120, 1-((2R,5S)-4-(6-chloro-7-(1,6-dimethyl-1H-indazol-7-yl)-2-(3-(dimethylamino)azetidin-1-yl)-8-fluoroquinazolin-4-yl)-2,5-dimethylpiperazin-1-yl)prop-2-en-1-one], the Binding % result is given as “++ (++ indicates binding activity from 50 to 80%)”. For `C=CC(=O)N1C[C@H](C)N(c2nc(OCCN3CC(F)(F)C3)nc3c(F)c(-c4c(C)ccc5cnn(CC)c45)c(Cl)cc23)C[C@H]1C` [Compound 123, 1-((2R,5S)-4-(6-chloro-2-(2-(3,3-difluoroazetidin-1-yl)ethoxy)-7-(1-ethyl-6-methyl-1H-indazol-7-yl)-8-fluoroquinazolin-4-yl)-2,5-dimethylpiperazin-1-yl)prop-2-en-1-one], the Binding % result was “+++ (+++ indicates binding activity greater than 80%)”.

Regarding `C=CC(=O)N1C[C@H](C)N(c2nc(N3CC(N(C)C)C3)nc3c(F)c(-c4c(C)ccc5sncc45)c(Cl)cc23)C[C@H]1C` [Compound 124, 1-((2R,5S)-4-(6-chloro-2-(3-(dimethylamino)azetidin-1-yl)-8-fluoro-7-(5-methylbenzo[d]isothia-zol-4-yl)quinazolin-4-yl)-2,5-dimethylpiperazin-1-yl)prop-2-en-1-one], the Binding % entry is reported as “++ (++ indicates binding activity from 50 to 80%)”.

Turning to `C=CC(=O)N1C[C@H](C)N(c2nc(N3CC(N(C)C)C3)nc3c(F)c(-c4c(C)ccc5ocnc45)c(Cl)cc23)C[C@H]1C` [Compound 125, 1-((2R,5S)-4-(6-chloro-2-(3-(dimethylamino)azetidin-1-yl)-8-fluoro-7-(5-methylbenzo[d]oxazol-4-yl)quinazolin-4-yl)-2,5-dimethylpiperazin-1-yl)prop-2-en-1-one], the Binding % entry is “++ (++ indicates binding activity from 50 to 80%)”. The entry for `C=CC(=O)N1C[C@H](C)N(c2nc(N3CC(N)C3)nc3c(F)c(-c4c(C)ccc5[nH]nc(C6CC6)c45)c(Cl)cc23)C[C@H]1C` [Compound 126, 1-((2R,5S)-4-(2-(3-aminoazetidin-1-yl)-6-chloro-7-(3-cyclopropyl-5-methyl-1H-indazol-4-yl)-8-fluoroquinazolin-4-yl)-2,5-dimethylpiperazin-1-yl)prop-2-en-1-one] is “+++ (+++ indicates binding activity greater than 80%)”; for `C=CC(=O)N1C[C@H](C)N(c2nc(N3CC(N(C)C)C3)nc3c(F)c(-c4c(C)ccc5cnn(C(C)C)c45)c(Cl)cc23)C[C@H]1C` [Compound 127, 1-((2R,5S)-4-(6-chloro-2-(3-(dimethylamino)azetidin-1-yl)-8-fluoro-7-(1-isopropyl-6-methyl-1H-indazol-7-yl)quinazolin-4-yl)-2,5-dimethylpiperazin-1-yl)prop-2-en-1-one] it is “++ (++ indicates binding activity from 50 to 80%)”; for `C=CC(=O)N1C[C@H](C)N(c2nc(N3CC(N(C)C)C3)nc3c(F)c(-c4c(C)ccc5cnn(C6CC6)c45)c(Cl)cc23)C[C@H]1C` [Compound 128, 1-((2R,5S)-4-(6-chloro-7-(1-cyclopropyl-6-methyl-1H-indazol-7-yl)-2-(3-(dimethylamino)azetidin-1-yl)-8-fluoroquinazolin-4-yl)-2,5-dimethylpiperazin-1-yl)prop-2-en-1-one] it is “+++ (+++ indicates binding activity greater than 80%)”. The entry for `C=CC(=O)N1C[C@H](C)N(c2nc(N3CC(NC)C3)nc3c(F)c(-c4c(C)ccc5[nH]nc(C6CC6)c45)c(Cl)cc23)C[C@H]1C` [Compound 129, 1-((2R,5S)-4-(6-chloro-7-(3-cyclopropyl-5-methyl-1H-indazol-4-yl)-8-fluoro-2-(3-(methylamino)azetidin-1-yl)quinazolin-4-yl)-2,5-dimethylpiperazin-1-yl)prop-2-en-1-one] is “+++ (+++ indicates binding activity greater than 80%)”; for `C=CC(=O)N1C[C@H](C)N(c2nc(N3CC(N(C)C)C3)nc3c(F)c(-c4cccc5occc45)c(Cl)cc23)C[C@H]1C` [Compound 130, 1-((2R,5S)-4-(7-(benzofuran-4-yl)-6-chloro-2-(3-(dimethylamino)azetidin-1-yl)-8-fluoroquinazolin-4-yl)-2,5-dimethylpiperazin-1-yl)prop-2-en-1-one] it is “++ (++ indicates binding activity from 50 to 80%)”. For `C=CC(=O)N1C[C@H](C)N(c2nc(N3CC(N(C)C)C3)nc3c(F)c(-c4c(C)ccc5ncn(C)c45)c(Cl)cc23)C[C@H]1C` [Compound 132, 1-((2R,5S)-4-(6-chloro-7-(1,6-dimethyl-1H-benzo[d]imidazol-7-yl)-2-(3-(dimethylamino)azetidin-1-yl)-8-fluoroquinazolin-4-yl)-2,5-dimethylpiperazin-1-yl)prop-2-en-1-one] the value was “+ (+ indicates binding activity greater than 0% and up to 50%)”; for `C=CC(=O)N1C[C@H](C)N(c2nc(N3CC(N(C)C)C3)nc3c(F)c(-c4cccc5ccn(C)c45)c(Cl)cc23)C[C@H]1C` [Compound 138, 1-((2R,5S)-4-(6-chloro-2-(3-(dimethylamino)azetidin-1-yl)-8-fluoro-7-(1-methyl-1H-indol-7-yl)quinazolin-4-yl)-2,5-dimethylpiperazin-1-yl)prop-2-en-1-one], “+++ (+++ indicates binding activity greater than 80%)”; for `C=CC(=O)N1C[C@H](C)N(c2nc(N3CC(NC)C3)nc3c(F)c(-c4c(C)ccc5[nH]nc(C)c45)c(Cl)cc23)C[C@H]1C` [Compound 140, 1-((2R,5S)-4-(6-chloro-7-(3,5-dimethyl-1H-indazol-4-yl)-8-fluoro-2-(3-(methylamino)azetidin-1-yl)quinazolin-4-yl)-2,5-dimethylpiperazin-1-yl)prop-2-en-1-one], “+++ (+++ indicates binding activity greater than 80%)”.

Consider `C=CC(=O)N1C[C@H](C)N(c2nc(N3CC(N(C)C)C3)nc3c(F)c(-c4c(F)ccc5cnn(C)c45)c(Cl)cc23)C[C@H]1C` [Compound 145, 1-((2R,5S)-4-(6-chloro-2-(3-(dimethylamino)azetidin-1-yl)-8-fluoro-7-(6-fluoro-1-methyl-1H-indazol-7-yl)quinazolin-4-yl)-2,5-dimethylpiperazin-1-yl)prop-2-en-1-one], for which the Binding % result is recorded as “+++ (+++ indicates binding activity greater than 80%)”.

On to `C=CC(=O)N1C[C@H](C)N(c2nc(N3CC(NC)C3)nc3c(F)c(-c4c(C)ccc5cnn(C6CC6)c45)c(Cl)cc23)C[C@H]1C` [Compound 148, 1-((2R,5S)-4-(6-chloro-7-(1-cyclopropyl-6-methyl-1H-indazol-7-yl)-8-fluoro-2-(3-(methylamino)azetidin-1-yl)quinazolin-4-yl)-2,5-dimethylpiperazin-1-yl)prop-2-en-1-one], for which the Binding % result is listed as “+++ (+++ indicates binding activity greater than 80%)”.
